In patent publication US20060141076A1, “Morinda citrifolia based compositions and methods for inhibiting xanthine oxidase” (priority 2004, published 2006):

Molecular target: T1, Xanthine Oxidase (Bos taurus, UniProt P80457)
T1 construct: Xanthine Oxidase was obtained from Bovine butter milk; from tissue; host or cells: bovine buttermilk
Test: Xanthine oxidase inhibition assay (uric acid quantitated by spectrophotometer, 165 μM xanthine substrate)
Type: biochemical, Bovine
Settings: Allopurinol comparison; concentration not given
Description: All other results are expressed in terms of that assay's quantitation method. For primary assays, only the lowest concentration with a significant response judged by the assays' criteria, is shown in this summary.
Methods employed in this study were adapted from the scientific literature to maximize reliability and reproducibility.

T1 sequence (P80457 whole entry): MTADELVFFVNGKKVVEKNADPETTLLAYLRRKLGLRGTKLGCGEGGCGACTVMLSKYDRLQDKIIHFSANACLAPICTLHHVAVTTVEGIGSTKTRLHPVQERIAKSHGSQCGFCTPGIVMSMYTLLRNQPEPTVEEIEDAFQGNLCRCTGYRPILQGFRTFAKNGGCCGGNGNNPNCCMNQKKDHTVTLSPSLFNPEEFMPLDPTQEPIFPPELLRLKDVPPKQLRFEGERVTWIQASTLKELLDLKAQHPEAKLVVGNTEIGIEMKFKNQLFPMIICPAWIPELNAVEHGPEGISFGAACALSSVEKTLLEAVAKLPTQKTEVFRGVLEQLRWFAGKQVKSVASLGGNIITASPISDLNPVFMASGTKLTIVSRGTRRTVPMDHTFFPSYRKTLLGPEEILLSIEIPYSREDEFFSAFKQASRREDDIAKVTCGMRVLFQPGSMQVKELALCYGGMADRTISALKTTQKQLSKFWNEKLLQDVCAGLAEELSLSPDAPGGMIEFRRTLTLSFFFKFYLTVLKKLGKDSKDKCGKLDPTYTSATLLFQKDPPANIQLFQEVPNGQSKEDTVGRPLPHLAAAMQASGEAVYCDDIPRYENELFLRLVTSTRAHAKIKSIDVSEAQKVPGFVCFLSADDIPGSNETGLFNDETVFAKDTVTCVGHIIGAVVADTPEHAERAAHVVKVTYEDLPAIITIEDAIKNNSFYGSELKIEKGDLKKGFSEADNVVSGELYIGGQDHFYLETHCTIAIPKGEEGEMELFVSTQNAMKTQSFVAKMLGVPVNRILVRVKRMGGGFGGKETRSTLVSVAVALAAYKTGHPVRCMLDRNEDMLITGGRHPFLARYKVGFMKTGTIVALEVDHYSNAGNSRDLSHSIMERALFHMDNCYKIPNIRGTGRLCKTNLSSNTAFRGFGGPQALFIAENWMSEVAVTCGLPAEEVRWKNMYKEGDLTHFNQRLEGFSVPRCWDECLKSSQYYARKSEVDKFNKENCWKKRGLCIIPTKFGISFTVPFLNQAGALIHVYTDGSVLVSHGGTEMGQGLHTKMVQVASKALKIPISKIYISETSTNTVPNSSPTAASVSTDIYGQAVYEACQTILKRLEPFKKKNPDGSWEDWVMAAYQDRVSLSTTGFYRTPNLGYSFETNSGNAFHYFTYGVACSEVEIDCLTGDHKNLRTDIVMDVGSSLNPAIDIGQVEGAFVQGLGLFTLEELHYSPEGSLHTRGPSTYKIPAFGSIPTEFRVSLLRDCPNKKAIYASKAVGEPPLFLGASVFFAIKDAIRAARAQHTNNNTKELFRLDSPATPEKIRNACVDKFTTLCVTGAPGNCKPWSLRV

Oc1ncnc2[nH]ncc12 [Allopurinol]
percent inhibition of xanthine oxidase: approximately 90%
